Measurements reported in ChEMBL document CHEMBL3991601, “The target landscape of clinical kinase drugs” (Science, 2017).
The source made the active and inactive calls. On the calls: in the data inactive means no Kd found up to 30 µM.

Experiments:
[1] = target: Dual specificity testis-specific protein kinase 2 (Homo sapiens, UniProt Q96S53)
[2] = target: T1, Dual specificity mitogen-activated protein kinase kinase 4 (Homo sapiens, UniProt P45985)
T1 sequence (P45985 whole entry): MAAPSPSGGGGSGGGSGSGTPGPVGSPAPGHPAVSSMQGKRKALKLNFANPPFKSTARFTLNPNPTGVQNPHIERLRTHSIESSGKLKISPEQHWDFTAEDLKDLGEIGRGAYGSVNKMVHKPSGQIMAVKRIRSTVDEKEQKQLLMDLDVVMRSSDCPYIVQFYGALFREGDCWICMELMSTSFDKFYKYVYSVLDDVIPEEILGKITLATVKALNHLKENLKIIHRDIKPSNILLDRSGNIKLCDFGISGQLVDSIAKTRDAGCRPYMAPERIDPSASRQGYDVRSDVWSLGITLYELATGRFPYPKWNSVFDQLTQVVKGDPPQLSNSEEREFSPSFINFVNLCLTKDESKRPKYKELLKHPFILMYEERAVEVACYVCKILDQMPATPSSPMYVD

[3] = target: T2, Cyclin-dependent kinase-like 5 (Homo sapiens, UniProt O76039)
T2 sequence (O76039 whole entry): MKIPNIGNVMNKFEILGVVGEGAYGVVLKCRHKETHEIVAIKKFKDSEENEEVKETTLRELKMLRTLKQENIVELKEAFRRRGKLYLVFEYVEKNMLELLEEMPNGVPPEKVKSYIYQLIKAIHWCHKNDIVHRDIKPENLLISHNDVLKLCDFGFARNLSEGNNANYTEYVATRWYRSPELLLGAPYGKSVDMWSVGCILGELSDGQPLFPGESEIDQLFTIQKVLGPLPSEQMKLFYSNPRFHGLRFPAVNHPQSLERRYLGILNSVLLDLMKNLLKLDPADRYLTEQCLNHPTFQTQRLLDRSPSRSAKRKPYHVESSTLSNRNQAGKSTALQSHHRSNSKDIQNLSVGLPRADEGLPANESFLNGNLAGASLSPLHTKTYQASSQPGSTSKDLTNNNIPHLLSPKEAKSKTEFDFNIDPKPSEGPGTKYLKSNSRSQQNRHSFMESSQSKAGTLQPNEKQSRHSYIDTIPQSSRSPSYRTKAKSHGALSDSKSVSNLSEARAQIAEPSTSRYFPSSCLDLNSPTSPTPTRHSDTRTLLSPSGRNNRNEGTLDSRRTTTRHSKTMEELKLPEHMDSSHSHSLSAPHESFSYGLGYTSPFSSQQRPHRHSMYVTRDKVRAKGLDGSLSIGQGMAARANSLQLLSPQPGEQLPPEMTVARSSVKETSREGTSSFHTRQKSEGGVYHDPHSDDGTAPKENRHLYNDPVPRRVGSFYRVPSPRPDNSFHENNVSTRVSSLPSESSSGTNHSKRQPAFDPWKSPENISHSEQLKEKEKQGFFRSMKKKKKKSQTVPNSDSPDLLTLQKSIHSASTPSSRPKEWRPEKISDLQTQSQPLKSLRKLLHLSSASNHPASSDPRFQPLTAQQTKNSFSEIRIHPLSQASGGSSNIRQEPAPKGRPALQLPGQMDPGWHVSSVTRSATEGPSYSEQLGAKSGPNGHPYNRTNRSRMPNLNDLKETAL

[4] = target: Serine/threonine-protein kinase 38-like (Homo sapiens, UniProt Q9Y2H1)
[5] = target: Serine/threonine-protein kinase N3 (Homo sapiens, UniProt Q6P5Z2)
[6] = target: Cyclin-dependent kinase 10 (Homo sapiens, UniProt Q15131)
Misshapen-like kinase 1 = Misshapen-like kinase 1 (Homo sapiens, UniProt Q8N4C8)
[7] = target: Serine/threonine-protein kinase pim-2 (Homo sapiens, UniProt Q9P1W9)
[8] = target: Serine/threonine-protein kinase PLK1 (Homo sapiens, UniProt P53350)
[9] = target: T3, Tyrosine-protein kinase Mer (Homo sapiens, UniProt Q12866)
T3 sequence (Q12866 whole entry): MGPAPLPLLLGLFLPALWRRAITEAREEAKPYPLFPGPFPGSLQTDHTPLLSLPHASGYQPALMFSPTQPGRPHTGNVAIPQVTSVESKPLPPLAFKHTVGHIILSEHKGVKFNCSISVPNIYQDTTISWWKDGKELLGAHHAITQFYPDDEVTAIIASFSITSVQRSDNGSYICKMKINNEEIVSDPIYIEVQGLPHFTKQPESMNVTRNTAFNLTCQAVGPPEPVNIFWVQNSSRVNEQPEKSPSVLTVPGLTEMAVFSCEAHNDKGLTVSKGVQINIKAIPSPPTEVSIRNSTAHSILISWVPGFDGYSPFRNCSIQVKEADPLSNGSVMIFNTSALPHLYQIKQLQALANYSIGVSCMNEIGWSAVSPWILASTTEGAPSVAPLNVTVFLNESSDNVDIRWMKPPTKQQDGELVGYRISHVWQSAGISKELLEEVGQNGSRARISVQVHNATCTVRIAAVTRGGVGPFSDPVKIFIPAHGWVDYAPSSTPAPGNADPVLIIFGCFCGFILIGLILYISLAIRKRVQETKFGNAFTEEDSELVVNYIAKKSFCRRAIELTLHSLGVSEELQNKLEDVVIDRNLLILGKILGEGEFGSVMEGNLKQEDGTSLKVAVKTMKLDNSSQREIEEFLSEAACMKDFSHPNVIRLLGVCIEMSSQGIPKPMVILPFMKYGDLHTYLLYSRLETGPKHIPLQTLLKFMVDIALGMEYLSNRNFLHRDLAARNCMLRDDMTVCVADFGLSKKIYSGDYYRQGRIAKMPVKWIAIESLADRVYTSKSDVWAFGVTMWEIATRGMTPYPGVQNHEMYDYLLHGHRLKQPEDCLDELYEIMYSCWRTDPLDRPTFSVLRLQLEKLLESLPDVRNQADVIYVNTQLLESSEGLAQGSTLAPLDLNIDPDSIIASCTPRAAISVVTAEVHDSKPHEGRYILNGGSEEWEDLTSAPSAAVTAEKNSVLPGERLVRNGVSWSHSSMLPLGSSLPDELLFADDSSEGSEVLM

Dual specificity testis-specific protein kinase 2, sequence (Q96S53 whole entry): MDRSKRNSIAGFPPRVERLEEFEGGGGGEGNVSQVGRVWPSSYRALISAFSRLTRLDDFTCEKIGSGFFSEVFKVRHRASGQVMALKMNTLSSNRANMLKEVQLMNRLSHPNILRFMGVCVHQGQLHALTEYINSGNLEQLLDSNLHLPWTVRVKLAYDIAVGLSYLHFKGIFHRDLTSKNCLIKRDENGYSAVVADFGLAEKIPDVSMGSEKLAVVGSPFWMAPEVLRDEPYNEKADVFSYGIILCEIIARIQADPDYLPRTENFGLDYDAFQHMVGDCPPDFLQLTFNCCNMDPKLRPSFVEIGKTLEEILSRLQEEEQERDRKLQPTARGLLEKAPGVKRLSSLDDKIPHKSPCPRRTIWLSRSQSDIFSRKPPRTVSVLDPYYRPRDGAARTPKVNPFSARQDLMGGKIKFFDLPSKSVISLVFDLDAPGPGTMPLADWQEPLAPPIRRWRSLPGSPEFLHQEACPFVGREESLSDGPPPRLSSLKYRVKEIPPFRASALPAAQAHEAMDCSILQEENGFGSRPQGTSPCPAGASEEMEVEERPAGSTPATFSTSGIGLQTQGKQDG
Serine/threonine-protein kinase pim-2, sequence (Q9P1W9 whole entry): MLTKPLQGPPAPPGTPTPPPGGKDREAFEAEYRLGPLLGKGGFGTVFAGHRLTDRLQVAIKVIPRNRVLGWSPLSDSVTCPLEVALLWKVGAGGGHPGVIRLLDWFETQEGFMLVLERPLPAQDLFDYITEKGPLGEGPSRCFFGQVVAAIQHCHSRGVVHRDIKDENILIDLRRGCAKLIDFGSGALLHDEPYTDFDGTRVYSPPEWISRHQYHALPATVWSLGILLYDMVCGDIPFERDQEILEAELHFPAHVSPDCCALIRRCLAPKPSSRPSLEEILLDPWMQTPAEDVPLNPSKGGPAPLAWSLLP
Serine/threonine-protein kinase 38-like, sequence (Q9Y2H1 whole entry): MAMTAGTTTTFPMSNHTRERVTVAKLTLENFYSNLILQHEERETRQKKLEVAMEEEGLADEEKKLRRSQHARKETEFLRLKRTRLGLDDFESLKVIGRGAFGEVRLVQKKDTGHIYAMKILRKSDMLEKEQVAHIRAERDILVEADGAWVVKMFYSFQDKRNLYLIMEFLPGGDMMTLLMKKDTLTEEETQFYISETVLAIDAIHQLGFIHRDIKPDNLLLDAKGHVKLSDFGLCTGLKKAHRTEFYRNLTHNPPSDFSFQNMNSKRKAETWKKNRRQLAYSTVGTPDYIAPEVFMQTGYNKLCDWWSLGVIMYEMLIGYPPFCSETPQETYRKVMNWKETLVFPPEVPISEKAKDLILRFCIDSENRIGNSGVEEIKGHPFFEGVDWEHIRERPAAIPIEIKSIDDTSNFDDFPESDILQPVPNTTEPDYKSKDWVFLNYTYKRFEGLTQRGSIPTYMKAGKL
Cyclin-dependent kinase 10, sequence (Q15131 whole entry): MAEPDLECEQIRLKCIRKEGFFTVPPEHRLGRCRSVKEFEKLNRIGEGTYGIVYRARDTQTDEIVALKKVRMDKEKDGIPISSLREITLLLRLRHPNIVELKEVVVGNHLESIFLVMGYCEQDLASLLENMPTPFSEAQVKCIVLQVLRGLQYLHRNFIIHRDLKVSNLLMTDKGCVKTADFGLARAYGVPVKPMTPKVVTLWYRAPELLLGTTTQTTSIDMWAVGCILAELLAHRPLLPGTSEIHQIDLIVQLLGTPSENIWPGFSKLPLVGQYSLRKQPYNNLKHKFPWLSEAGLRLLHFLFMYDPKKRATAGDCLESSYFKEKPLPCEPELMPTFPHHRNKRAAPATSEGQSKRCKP
Serine/threonine-protein kinase PLK1, sequence (P53350 whole entry): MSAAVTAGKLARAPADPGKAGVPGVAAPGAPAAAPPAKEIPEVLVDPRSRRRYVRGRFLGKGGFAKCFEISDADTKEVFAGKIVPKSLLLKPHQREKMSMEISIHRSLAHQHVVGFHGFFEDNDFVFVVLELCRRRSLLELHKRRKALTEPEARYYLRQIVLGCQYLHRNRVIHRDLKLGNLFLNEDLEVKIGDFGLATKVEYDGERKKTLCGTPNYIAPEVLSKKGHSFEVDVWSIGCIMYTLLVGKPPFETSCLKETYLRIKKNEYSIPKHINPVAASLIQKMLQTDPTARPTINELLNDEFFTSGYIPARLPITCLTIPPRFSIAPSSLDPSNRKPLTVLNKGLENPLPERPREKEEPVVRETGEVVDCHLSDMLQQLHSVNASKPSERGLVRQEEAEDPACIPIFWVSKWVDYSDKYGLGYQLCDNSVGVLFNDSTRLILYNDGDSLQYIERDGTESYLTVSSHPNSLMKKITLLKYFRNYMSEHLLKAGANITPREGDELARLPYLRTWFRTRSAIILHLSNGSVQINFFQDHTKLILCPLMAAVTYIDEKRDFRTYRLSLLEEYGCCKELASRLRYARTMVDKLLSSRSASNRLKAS
Serine/threonine-protein kinase N3, sequence (Q6P5Z2 whole entry): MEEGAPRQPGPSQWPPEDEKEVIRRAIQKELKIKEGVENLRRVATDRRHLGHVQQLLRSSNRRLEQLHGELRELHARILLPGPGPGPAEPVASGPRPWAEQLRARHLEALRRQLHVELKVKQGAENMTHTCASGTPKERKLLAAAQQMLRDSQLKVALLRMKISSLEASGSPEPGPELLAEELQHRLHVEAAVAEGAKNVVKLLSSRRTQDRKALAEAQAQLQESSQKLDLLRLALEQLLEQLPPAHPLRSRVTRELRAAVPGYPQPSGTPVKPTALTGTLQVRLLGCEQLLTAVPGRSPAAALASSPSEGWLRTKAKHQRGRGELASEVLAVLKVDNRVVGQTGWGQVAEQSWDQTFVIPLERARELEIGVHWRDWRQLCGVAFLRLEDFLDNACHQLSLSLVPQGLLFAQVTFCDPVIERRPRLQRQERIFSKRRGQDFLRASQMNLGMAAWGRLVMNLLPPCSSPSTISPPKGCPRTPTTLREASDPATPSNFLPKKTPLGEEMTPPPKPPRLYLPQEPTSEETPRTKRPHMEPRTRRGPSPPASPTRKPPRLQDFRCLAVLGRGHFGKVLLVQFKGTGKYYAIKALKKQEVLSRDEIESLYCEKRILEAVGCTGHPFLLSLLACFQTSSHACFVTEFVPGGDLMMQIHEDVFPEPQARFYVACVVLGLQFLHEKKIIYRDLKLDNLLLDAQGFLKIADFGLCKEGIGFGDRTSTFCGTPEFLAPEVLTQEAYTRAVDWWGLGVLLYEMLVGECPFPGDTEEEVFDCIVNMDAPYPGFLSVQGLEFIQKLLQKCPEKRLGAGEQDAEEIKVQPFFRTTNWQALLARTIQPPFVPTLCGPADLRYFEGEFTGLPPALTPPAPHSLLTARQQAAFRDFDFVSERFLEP
Misshapen-like kinase 1, sequence (Q8N4C8 whole entry): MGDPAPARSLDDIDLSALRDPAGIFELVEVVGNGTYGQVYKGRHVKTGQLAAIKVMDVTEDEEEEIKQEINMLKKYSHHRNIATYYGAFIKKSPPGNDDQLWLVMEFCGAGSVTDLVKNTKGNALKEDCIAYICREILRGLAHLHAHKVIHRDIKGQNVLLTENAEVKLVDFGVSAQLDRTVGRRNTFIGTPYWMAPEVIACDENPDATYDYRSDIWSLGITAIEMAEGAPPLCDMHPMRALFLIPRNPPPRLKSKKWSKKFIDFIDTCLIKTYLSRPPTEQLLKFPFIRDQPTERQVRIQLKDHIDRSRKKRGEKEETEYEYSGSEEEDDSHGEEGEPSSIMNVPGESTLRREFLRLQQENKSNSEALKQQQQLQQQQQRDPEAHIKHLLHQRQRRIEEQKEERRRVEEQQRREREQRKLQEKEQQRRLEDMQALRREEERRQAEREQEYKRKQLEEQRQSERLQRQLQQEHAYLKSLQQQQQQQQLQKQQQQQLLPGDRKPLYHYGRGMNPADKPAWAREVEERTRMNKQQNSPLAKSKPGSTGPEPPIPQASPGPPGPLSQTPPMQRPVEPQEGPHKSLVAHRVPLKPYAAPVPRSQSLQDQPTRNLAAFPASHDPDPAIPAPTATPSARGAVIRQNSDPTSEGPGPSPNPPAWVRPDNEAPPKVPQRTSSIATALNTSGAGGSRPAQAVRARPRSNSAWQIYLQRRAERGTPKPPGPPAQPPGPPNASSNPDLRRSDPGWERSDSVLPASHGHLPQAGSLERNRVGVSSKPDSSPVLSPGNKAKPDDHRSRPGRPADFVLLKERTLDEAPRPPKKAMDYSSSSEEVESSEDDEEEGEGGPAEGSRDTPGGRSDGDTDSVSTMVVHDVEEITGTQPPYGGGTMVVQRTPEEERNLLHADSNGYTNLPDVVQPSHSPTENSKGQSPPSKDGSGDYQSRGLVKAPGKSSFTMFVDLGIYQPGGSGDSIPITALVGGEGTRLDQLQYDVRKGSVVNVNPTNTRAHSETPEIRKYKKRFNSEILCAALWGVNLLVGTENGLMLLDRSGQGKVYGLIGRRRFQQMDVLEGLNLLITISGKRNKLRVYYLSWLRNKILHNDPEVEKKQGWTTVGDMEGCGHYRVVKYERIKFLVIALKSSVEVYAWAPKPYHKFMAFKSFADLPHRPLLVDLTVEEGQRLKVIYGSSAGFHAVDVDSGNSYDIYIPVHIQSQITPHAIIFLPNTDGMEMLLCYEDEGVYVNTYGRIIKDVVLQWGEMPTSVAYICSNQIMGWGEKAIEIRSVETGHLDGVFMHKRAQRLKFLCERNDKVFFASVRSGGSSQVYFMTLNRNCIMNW

COc1cccc(Nc2ncnn3ccc(CN4CC[C@@H](N)[C@H](O)C4)c23)c1 [BMS-690514]
Kd [1]: > 30 µM (inactive) | Kd [2]: > 30 µM (inactive) | Kd [3]: > 30 µM (inactive) | Kd [4]: > 30 µM (inactive)

CN(c1ncccc1CNc1nc(Nc2ccc3c(c2)CC(=O)N3)ncc1C(F)(F)F)S(C)(=O)=O [PF-00562271]
Kd [5]: > 30 µM (inactive) | Kd [3]: > 30 µM (inactive) | Kd [6]: > 30 µM (inactive)

CNC(=O)c1cc(COc2nnc(Nc3ccc(Cl)cc3)c3ccoc23)ccn1 [TELATINIB]
Kd [5]: > 30 µM (inactive) | Kd [1]: > 30 µM (inactive) | Kd (Misshapen-like kinase 1): > 30 µM (inactive) | Kd [7]: > 30 µM (inactive) | Kd [6]: > 30 µM (inactive)

COc1cc2c(Oc3ccc4[nH]c(C)cc4c3F)ncnc2cc1OCCCN1CCCC1 [CEDIRANIB]
Kd [5]: > 30 µM (inactive) | Kd [1]: > 30 µM (inactive)

Cc1cc(-c2cc(OC(=O)c3ccccc3)ccc2Cl)cc2nnc(Nc3ccc(OCCN4CCCC4)cc3)nc12 [TG100-801]
Kd [5]: > 30 µM (inactive) | Kd [1]: > 30 µM (inactive) | Kd [2]: > 30 µM (inactive) | Kd [3]: > 30 µM (inactive) | Kd [4]: > 30 µM (inactive) | Kd [7]: > 30 µM (inactive) | Kd [6]: > 30 µM (inactive)

N#CCNC(=O)c1ccc(-c2ccnc(Nc3ccc(N4CCOCC4)cc3)n2)cc1 [MOMELOTINIB]
Kd [3]: > 30 µM (inactive) | Kd [7]: > 30 µM (inactive)

Cc1cc(C(=O)Nc2cc(Oc3ccc4nc(NC(=O)C5CC5)cn4n3)ccc2C)n(C)n1 [TAK-593]
Kd [1]: > 30 µM (inactive) | Kd [3]: > 30 µM (inactive) | Kd [8]: > 30 µM (inactive) | Kd [7]: > 30 µM (inactive)

Cc1c(NC(=O)OC[C@@H]2COCCN2)cn2ncnc(Nc3ccc4c(cnn4Cc4cccc(F)c4)c3)c12 [AC-480]
Kd [8]: > 30 µM (inactive) | Kd [7]: > 30 µM (inactive)

C=CCN(/C=C1/C(=O)O[C@H](COC)[C@@]2(C)C1=C(O)C(=O)C1=C2[C@H](OC(C)=O)C[C@]2(C)C(=O)CC[C@@H]12)CC=C [SONOLISIB]
Kd [3]: > 30 µM (inactive)

COc1cc(Nc2ncc(F)c(Nc3ccc4c(n3)N(COP(=O)(O)O)C(=O)C(C)(C)O4)n2)cc(OC)c1OC [FOSTAMATINIB]
Kd [1]: > 30 µM (inactive) | Kd [2]: > 30 µM (inactive) | Kd [3]: > 30 µM (inactive) | Kd [4]: > 30 µM (inactive) | Kd [8]: > 30 µM (inactive)

COCCN1CCN(Cc2ccc(-c3n[nH]c4c3C(=O)c3c(NC(=O)NN5CCOCC5)cccc3-4)cc2)CC1 [RGB-286638]
Kd [7]: 0.042 µM (active) | Kd [9]: > 30 µM (inactive)

CNC(=O)c1ccc(Nc2ncc(C(F)(F)F)c(NCc3nccnc3N(C)S(C)(=O)=O)n2)cc1 [DEFACTINIB]
Kd [5]: > 30 µM (inactive) | Kd [1]: > 30 µM (inactive) | Kd [3]: 0.016 µM | Kd [7]: > 30 µM (inactive)

C=CC(=O)Nc1cccc(Nc2nc(Nc3ccc(N4CCN(C(C)=O)CC4)cc3OC)ncc2C(F)(F)F)c1 [ROCILETINIB]
Kd [7]: > 30 µM (inactive)

Cc1ccc(C(=O)Nc2ccc(Oc3cc4cnn(C)c4cc3-c3cn[nH]c3)c(F)c2)c(=O)n1-c1ccc(F)cc1 [MERESTINIB]
Kd [5]: > 30 µM (inactive) | Kd [2]: > 30 µM (inactive) | Kd [4]: > 30 µM (inactive) | Kd [8]: > 30 µM (inactive) | Kd (Misshapen-like kinase 1): > 30 µM (inactive) | Kd [7]: > 30 µM (inactive) | Kd [6]: > 30 µM (inactive)

CCOc1ccn(-c2ccc(F)cc2)c(=O)c1C(=O)Nc1ccc(Oc2ccnc(N)c2Cl)c(F)c1 [BMS-777607]
Kd [3]: > 30 µM (inactive) | Kd [4]: > 30 µM (inactive) | Kd (Misshapen-like kinase 1): > 30 µM (inactive)

O=C(O)c1ccc2c(c1)nc(Nc1cccc(Cl)c1)c1ccncc12 [SILMITASERTIB]
Kd [5]: > 30 µM (inactive) | Kd [1]: > 30 µM (inactive) | Kd [3]: > 30 µM (inactive) | Kd [4]: > 30 µM (inactive) | Kd [8]: 0.672 µM (active) | Kd (Misshapen-like kinase 1): > 30 µM (inactive)

COc1cc2ncnc(Nc3ccc(F)c(Cl)c3)c2cc1NC(=O)/C=C/CN1CCCCC1 [DACOMITINIB ANHYDROUS]
Kd [1]: > 30 µM (inactive) | Kd [2]: > 30 µM (inactive) | Kd [3]: > 30 µM (inactive) | Kd [4]: > 30 µM (inactive) | Kd [7]: > 30 µM (inactive)

S=C(NCc1ccc2c(c1)OCO2)N1CCN(c2ncnc3c2oc2ccccc23)CC1 [AMUVATINIB]
Kd [5]: > 30 µM (inactive) | Kd [2]: > 30 µM (inactive) | Kd [8]: > 30 µM (inactive) | Kd (Misshapen-like kinase 1): > 30 µM (inactive) | Kd [9]: > 30 µM (inactive) | Kd [6]: > 30 µM (inactive)

O[C@H]1CC[C@H](Nc2ncc3nc(Nc4c(F)cc(F)cc4F)n([C@H]4CCOC4)c3n2)CC1 [TANZISERTIB]
Kd [5]: > 30 µM (inactive) | Kd [3]: > 30 µM (inactive) | Kd [4]: > 30 µM (inactive) | Kd (Misshapen-like kinase 1): > 30 µM (inactive) | Kd [7]: > 30 µM (inactive) | Kd [9]: > 30 µM (inactive)

Cn1cnc2c(F)c(Nc3ccc(Br)cc3Cl)c(C(=O)NOCCO)cc21 [SELUMETINIB]
Kd [5]: > 30 µM (inactive) | Kd [1]: > 30 µM (inactive)

FC(F)(F)c1ccc(CNc2ccc(Cc3c[nH]c4ncc(Cl)cc34)cn2)cn1 [PEXIDARTINIB]
Kd [4]: > 30 µM (inactive) | Kd [7]: > 30 µM (inactive) | Kd [9]: > 30 µM (inactive)

COc1cc2c(N3CCN(C(=O)Nc4ccc(OC(C)C)cc4)CC3)ncnc2cc1OCCCN1CCCCC1 [TANDUTINIB]
Kd [5]: > 30 µM (inactive) | Kd [1]: > 30 µM (inactive)

CCN(CCCOc1ccc2c(Nc3cc(CC(=O)Nc4cccc(F)c4)n[nH]3)ncnc2c1)CCOP(=O)(O)O [BARASERTIB]
Kd [1]: > 30 µM (inactive) | Kd [3]: > 30 µM (inactive) | Kd (Misshapen-like kinase 1): > 30 µM (inactive) | Kd [9]: > 30 µM (inactive)

CCN1CCN(Cc2ccc(Nc3ncc(F)c(-c4cc(F)c5nc(C)n(C(C)C)c5c4)n3)nc2)CC1 [ABEMACICLIB]
Kd [5]: > 30 µM (inactive) | Kd [3]: > 30 µM (inactive)

C[C@@]1(C(=O)Nc2ccc(F)nc2)CCCN1c1nc(Nc2cc(C3CC3)n[nH]2)c2cccn2n1 [BMS-754807]
Kd [1]: > 30 µM (inactive)

c1cc(OCCN2CCCCC2)cc(-c2n[nH]c3ccc(-c4nc[nH]n4)cc23)c1 [CC-401]
Kd [5]: > 30 µM (inactive) | Kd [1]: > 30 µM (inactive) | Kd [3]: > 30 µM (inactive) | Kd [4]: > 30 µM (inactive) | Kd [7]: > 30 µM (inactive) | Kd [9]: > 30 µM (inactive)

C[C@]1(O)C[C@@H](c2nc(-c3ccc4ccc(-c5ccccc5)nc4c3)c3c(N)nccn32)C1 [LINSITINIB]
Kd [5]: > 30 µM (inactive) | Kd [1]: > 30 µM (inactive) | Kd [2]: > 30 µM (inactive) | Kd (Misshapen-like kinase 1): > 30 µM (inactive) | Kd [9]: > 30 µM (inactive) | Kd [6]: > 30 µM (inactive)
